# Measurements from patent US5849753A, “Pyridyl imidazole derivatives and processes for the preparation thereof” (Korea Research Institute of Chemical Technology, priority 1994, dated 1998).
# Key:
# [1] = system: renal hypertensive rats; assay: Duration of action in renal hypertensive rats; type: in vivo, male Sprague-Dawley rats; conditions: 3 mg/kg, oral
# Excerpt: (§1) To induce renal hypertension, left renal artery of 4 week-old male Sprague-Dawley rats(from The Korea Research Institute of Chemical Technology) was ligated. The rats were anesthetized with ether and the surgical region on the left abdomen of the rat was shaved, disinfected, and then incised about 1 cm vertically. The renal artery near abdominal aorta was isolated carefully from surrounding tissues and veins, and then ligated completely with a suture(4/0 sterile surgical silk). The muscular strata and skin of the surgical area were sutured with a suture(4/0 sterile surgical silk). The surgical region was disinfected to prevent infection and thereafter, 200 to 250 mg/Kg/day of cephazolin sodium was injected intramuscularly for 2 days. 6 to 8 days after the ligation, rats showing systolic pressure of more than 180 mmHg were selected for renal hypertension test. The blood pressure was determined by a tail-cuff method from the tail under unanesthetized condition(Gerold, M. et al., Arzneimittrel-Forsch, 18, 1285(1968)).
# (§2) Each of the compounds to be tested was administered intravenously or orally into the renal hypertensive rat. The blood pressure of the rats was determined by direct method(Chiu, A. T. et al., J. Pharmacol. Exp. Ther. 250, 867(1989)) using a catheter. The rats were anesthetized with ketamine hydrochloride(125 mg/kg, i.p.) and a catheter was filled with saline and inserted into a carotid artery and carotid vein. The surgical area was sutured with a metal clip. The rats were relaxed at least 3 hours and the catheter in the carotid artery was adapted to an isotec pressure transducer to determine their blood pressure and heart rate with a physiograph(Linearcorder WR3310). After the blood pressure was stabilized, the test compound was administered intravenously or orally. For intravenous administration, the administered volume and washing volume were 1.0 ml/Kg and 0.2 ml, respectively. The blood pressure and heart rate were measured in regular intervals up to 24 hours after the administration of the test compound and compared with those measured after the administration of the control compound Losartan.
# The present(Example 28) and control(Merck) compounds were tested using the hypertensive rats of test 2(i). 1 mg or 3 mg/kg of each compound was administered orally and blood pressure lowering effect with time was determined to measure the duration of action of the compounds.
# [2] = Metabolite analysis (enzyme digestion test); type: in vitro ADME, male rats; conditions: rat liver microsome and NADPH, 1 hour, 37° C., HPLC
# Experimental: Enzyme digestion test was executed in order to detect the metabolite of the test compound in vivo.
# A liver microsome and NADPH system of male rats were added to each of the present compound(Example 8) and the control compound(Merck), and the mixture was incubated for 1 hour at 37° C. The resultant was extracted with methanol or dichloromethane, and, thereafter, the organic layer was evaporated to obtain a residue. The residue was analyzed using high pressure liquid chromatography.
# [3] = system: unanesthetized dogs; assay: Blood pressure lowering effect in unanesthetized dogs (furosemide treated); type: in vivo, dog; parameters: Maximum blood pressure lowering effect in a dog: unit not given here; conditions: dog, oral
# Experimental: A number of dogs were fed freely in a feeding room and those weighing 7 to 12 kg in good health were selected regardless of their gender.
# (§3) The test dogs were anesthetized with 30 mg/kg of pentobarbital sodium by intravenous injection and the left femoral artery and femoral vein were separated carefully. Silicone catheter, specially prepared and filled with saline treated with heparin(1,000 IU/ml), was cannulated into the blood vessels. After the surgery, the dogs were constrained to measure their blood pressure continuously with Gould 2000 physiograph adapted to a Grass P23 XL pressure transducer; and their heart rates were monitored with ECG/Biotacho amplifier. The dogs were tested at least 2 days after the surgery.
# 10 mg/kg of furosemide was injected intramuscularly 18 hours(in case of intravenous injection, 2 hours) before the beginning of the test (administration of the test compound) to improve the activity of renin in blood plasma. After the injection of furosemide, neither food nor water was provided. The test compound was suspended in Tween 80 and administered in an amount of 20 mg/kg orally. The blood pressure and heart rate were measured up to 8 hours after the administration of each test compound.
# The maximum blood pressure lowering effect of the present compounds and the control compounds were determined in different amounts of administration using the same method as […]
# [4] = system: furosemide-administered dogs; assay: Duration of action in furosemide-administered dogs; type: in vivo, dog; conditions: 0.33 mg, per os
# Experimental: as §3
# 10 mg/kg of furosemide was injected intramuscularly 18 hours(in case of intravenous injection, 2 hours) before the beginning of the test (administration of the test compound) to improve the activity of renin in blood plasma. After the injection of furosemide, neither food nor water was provided. […] The blood pressure and heart rate were measured up to 8 hours after the administration of each test compound.
# The compound of Example 8 and the Merck compound were administered orally to the furosemide-administrated dogs as in test 3(i), and blood pressure lowering effect was measured with time.
# [5] = system: renal hypertensive rat; assay: Blood pressure lowering effect on oral administration to rats at several doses; type: in vivo, male Sprague-Dawley rats; conditions: 3 mg/kg
# Excerpt: as §1, §2
# The test compound was dissolved in 0.05N KOH for intravenous administration and suspended in Tween 80 for oral administration.
# (iii) Blood pressure lowering effect The present compounds, Losartan(Dup 753) and the Merck compound were administrated orally to rats in 10, 3, 1, 0.3 and 0.1 mg/kg under the same condition as in (ii) and the blood pressure lowering effect was determined.
compound,measurement,setting,value
"CCc1nc2c(C)cc(C)nc2n1Cc1ccc(-c2ccccc2-c2nnn[nH]2)cc1 [Merck compound, reference compound]",blood pressure lowering effect with time,[1]; 0 min,0%
same,blood pressure lowering effect with time,[1]; 10 min,-15%
same,blood pressure lowering effect with time,[1]; 20 min,-27%
same,blood pressure lowering effect with time,[1]; 30 min,-28%
same,blood pressure lowering effect with time,[1]; 60 min,-26%
same,blood pressure lowering effect with time,[1]; 90 min,-28%
same,blood pressure lowering effect with time,[1]; 120 min,-25%
same,blood pressure lowering effect with time,[1]; 240 min,-40%
same,blood pressure lowering effect with time,[1]; 360 min,-36%
same,blood pressure lowering effect with time,[1]; 1320 min,-35%
same,blood pressure lowering effect with time,[1]; 1440 min,-40%
same,blood pressure lowered,[1]; time in minutes not given,-40%
same,metabolite from the enzymatic digestion,[2],has a metabolite
same,Maximum blood pressure lowering effect in a dog,[3]; 0.1 mg/kg,20
same,Maximum blood pressure lowering effect in a dog,[3]; 0.3 mg/kg,24
same,blood pressure lowering effect with time,[4]; 0 min,0.0%
same,blood pressure lowering effect with time,[4]; 10 min,-5.0%
same,blood pressure lowering effect with time,[4]; 20 min,-12.2%
same,blood pressure lowering effect with time,[4]; 30 min,-14.4%
same,blood pressure lowering effect with time,[4]; 60 min,-20.1%
same,blood pressure lowering effect with time,[4]; 90 min,-24.4%
same,blood pressure lowering effect with time,[4]; 120 min,-19.1%
same,blood pressure lowering effect with time,[4]; 150 min,-24.2%
same,blood pressure lowering effect with time,[4]; 180 min,-18.9%
same,blood pressure lowering effect with time,[4]; 210 min,-17.0%
same,blood pressure lowering effect with time,[4]; 240 min,-17.0%
same,blood pressure lowering effect with time,[4]; 270 min,-13.4%
same,blood pressure lowering effect with time,[4]; 300 min,-14.9%
same,blood pressure lowering effect with time,[4]; 330 min,-15.6%
same,blood pressure lowering effect with time,[4]; 360 min,-15.6%
same,blood pressure lowering effect with time,[4]; 390 min,-11.4%
same,blood pressure lowering effect with time,[4]; 420 min,-10.7%
same,blood pressure lowering effect with time,[4]; 450 min,-11.4%
same,blood pressure lowering effect with time,[4]; 480 min,-13.8%
same,blood pressure lowering effect,[5],40%
